From article PMC7037682, “Herb–Drug Interaction of Red Ginseng Extract and Ginsenoside Rc with Valsartan in Rats” (Molecules, 2020)
Where two headings read alike, the source gives them in different places.

Tests used:
[1] = biological target: T1, OAT3 (Homo sapiens, UniProt Q8TCC7); test: Inhibition of OAT3-mediated [3H]ES uptake in HEK293-OAT3 cells
T1 sequence (Q8TCC7 1-542): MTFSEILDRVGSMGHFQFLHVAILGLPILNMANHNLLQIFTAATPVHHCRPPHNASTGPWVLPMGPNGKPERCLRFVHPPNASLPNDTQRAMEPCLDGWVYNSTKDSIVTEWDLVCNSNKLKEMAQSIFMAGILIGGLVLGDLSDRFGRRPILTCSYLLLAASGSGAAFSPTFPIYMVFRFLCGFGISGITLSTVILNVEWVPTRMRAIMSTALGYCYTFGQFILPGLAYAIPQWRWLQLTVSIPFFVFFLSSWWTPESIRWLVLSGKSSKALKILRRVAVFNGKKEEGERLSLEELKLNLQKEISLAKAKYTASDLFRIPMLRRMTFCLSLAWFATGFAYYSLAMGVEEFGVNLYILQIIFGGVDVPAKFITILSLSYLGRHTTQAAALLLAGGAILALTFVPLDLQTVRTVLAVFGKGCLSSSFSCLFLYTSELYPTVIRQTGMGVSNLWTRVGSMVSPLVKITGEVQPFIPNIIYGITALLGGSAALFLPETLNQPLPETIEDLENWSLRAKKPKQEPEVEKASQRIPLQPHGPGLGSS
Method: (§1) HEK293 cells overexpressing the OCT1, OCT2, OAT1, OAT3, OATP1B1, and OATP1B3 transporters (HEK293-OCT1, -OCT2, -OAT1, -OAT3, -OATP1B1, and -OATP1B3, respectively) and HEK293-mock cells (Corning Life Sciences; Woburn, MA, USA) were used and characterized as previously described.
(§2) HEK293 cells overexpressing drug transporters and HEK293-mock cells were seeded in poly-D-lysine-coated 96-well plates at a density of 10^5 cells/well and were cultured in DMEM supplemented with 10% FBS, 5 mM non-essential amino acids, and 2 mM sodium butyrate in a humidified atmosphere with 8% CO2 at 37 °C.
(§3) To examine the effects of ginsenosides and typical inhibitors on transporter activity, aliquots (100 μL) of HBSS containing the probe substrate and ginsenosides or typical inhibitors were added to the cells after aspirating pre-incubated HBSS. The concentrations and probe substrates were as follows: 0.1 μM [^3H]MPP^+ for OCT1 and OCT2, 0.1 μM [^3H]PAH for OAT1, 0.1 μM [^3H]ES for OAT3 and OATP1B1, and 0.1 μM [^3H]EG for OATP1B3. […] Then the uptake of probe substrates into HEK293-mock cells and HEK293-OCT1, -OCT2, -OAT1, -OAT3, -OATP1B1, and -OATP1B3 cells in the presence and absence of typical inhibitor or each ginsenoside with previously described concentration range was measured for 5 min. Immediately after placing the plates on ice, the cells were washed three times with 100 μL of ice-cold HBSS, followed by lysing with 50 μL of 10% SDS solution and mixing with 150 μL of Optiphase cocktail solution (Perkin Elmer Inc., Boston, MA, USA). The radioactivity of the probe substrates in the cells was determined using a liquid scintillation counter.
(§4) In the inhibition studies, the uptake rate of substrate by HEK293 cells overexpressing the respective transporters was used as the control (100%) and the uptake rate of substrates in the presence of typical inhibitors or ginsenosides expressed as a percentage of the control. The inhibition data were fitted to an inhibitory effect model using Sigma plot (version 10.0; Systat Software Inc., San Jose, CA, USA). IC50 value indicated the half-maximal inhibitory concentration of the inhibitor.

[2] = biological target: T2, OATP1B1 (Homo sapiens, UniProt Q9Y6L6); test: Inhibition of OATP1B1-mediated [3H]estrone-3-sulfate uptake in HEK293-OATP1B1 cells
T2 sequence (Q9Y6L6 1-691): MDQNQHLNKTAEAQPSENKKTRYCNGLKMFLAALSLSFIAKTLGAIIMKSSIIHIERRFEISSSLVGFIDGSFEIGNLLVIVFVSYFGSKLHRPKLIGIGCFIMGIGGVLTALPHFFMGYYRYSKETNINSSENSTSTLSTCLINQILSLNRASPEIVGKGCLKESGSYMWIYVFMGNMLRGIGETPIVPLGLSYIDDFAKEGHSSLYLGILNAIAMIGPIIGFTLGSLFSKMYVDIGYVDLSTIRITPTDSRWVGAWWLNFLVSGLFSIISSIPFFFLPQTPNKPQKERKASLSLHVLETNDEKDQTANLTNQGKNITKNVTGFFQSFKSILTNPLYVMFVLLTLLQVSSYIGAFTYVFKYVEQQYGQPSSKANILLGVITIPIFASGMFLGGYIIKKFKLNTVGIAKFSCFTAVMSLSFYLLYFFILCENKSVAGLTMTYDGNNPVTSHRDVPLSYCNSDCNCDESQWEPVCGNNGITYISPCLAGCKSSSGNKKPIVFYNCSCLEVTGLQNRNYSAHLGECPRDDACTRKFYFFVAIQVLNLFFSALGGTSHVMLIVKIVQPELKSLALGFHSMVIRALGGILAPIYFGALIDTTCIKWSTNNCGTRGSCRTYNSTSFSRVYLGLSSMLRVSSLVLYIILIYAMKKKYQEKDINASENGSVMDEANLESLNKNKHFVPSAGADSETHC
Method: as §1, §2, §3, §4

[3] = Plasma pharmacokinetics of ginsenosides in rats after 1-week repeated RGE; conditions: for detection in rat plasma: LC-MS/MS; for maximum plasma concentration (molar): after RGE 1.5 g/kg/day po for 7 days
Method: The rats were randomly divided into the control and RGE groups. The RGE group received a RGE suspension (1.5 g/mL/kg/day, in distilled water) for 7 days via oral gavage. The control group received distilled water for 7 days via oral gavage. After 1 h following the last RGE treatment, valsartan was injected intravenously to both groups via the tail vein at 1 mg/mL/kg (dissolved in DMSO: saline = 2:8, v/v). […] After centrifugation of the blood samples at 16,000× g for 10 min, aliquots (50 μL each) of plasma samples were stored at −80 °C until the analysis of ginsenosides and valsartan.
The residue was reconstituted with 100 μL of 70% methanol consisting of 0.1% formic acid. An aliquot (20 μL) from the sample was injected into the LC-MS/MS system.
After freezing the aqueous layer at −80 °C for 2 h, the upper organic layer was transferred to a clean tube and evaporated to dryness. […] An aliquot (20 μL) from the sample was injected into the LC-MS/MS system. The samples were eluted through an Omega Polar C18 column (2.1 mm × 100 mm, 3 µm particle size) (Phenomenex, Torrance, CA, USA) using a mobile phase consisting of 0.1% formic acid in water: 0.1% formic acid in methanol (15:85, v/v) at a flow rate of 0.2 mL/min.
Pharmacokinetic parameters were calculated from plasma concentration-time profile using non-compartment analysis of WinNonlin (version 5.1; Pharsights, Cary, NC, USA). The statistical significance was assessed by t-test using Statistical Package for the Social Sciences (version 24.0; SPSS Inc., Chicago, IL, USA).

[4] = read-out: IC50 OAT3, HEK293-OAT3, 0.1 μM [3H]ES uptake, 5 min
[5] = read-out: IC50 OATP1B1, HEK293-OATP1B1, 0.1 μM [3H]ES uptake, 5 min
[6] = after RGE 1.5 g/kg/day po for 1 week
[7] = rat plasma, after RGE 1.5 g/kg/day po for 1 week
[8] = HEK293-OATP1B1, 0.1 μM [3H]ES uptake, 5 min

maximum plasma concentration (molar) ([3]; rat plasma) | IC50 [1] | IC50 [2] | IC50 OATP1B1 [2, 8] | AUC ([3]; rat, plasma, po, 1.5 g/kg/day) | Cmax ([3]; rat, plasma, po, 1.5 g/kg/day) | MRT ([3]; rat, plasma, po, 1.5 g/kg/day) | Tmax ([3]; rat, plasma, po, 1.5 g/kg/day) | half-life ([3]; rat, plasma, po, 1.5 g/kg/day) | SMILES | IC50 [1, 4] | IC50 [2, 5] | detection in rat plasma [3, 6] | further results
 |  |  |  |  |  |  |  |  | CC(C)=CCC[C@](C)(O)[C@H]1CC[C@]2(C)[C@@H]1[C@H](O)C[C@@H]1[C@@]3(C)CC[C@H](O[C@@H]4O[C@H](CO)[C@@H](O)[C@H](O)[C@H]4O[C@@H]4O[C@H](CO)[C@@H](O)[C@H](O)[C@H]4O)C(C)(C)[C@@H]3CC[C@]12C [Rg3, ginsenoside Rg3] | > 100 µM | 7.99 µM | not detected | 
 | > 100 µM | > 100 µM | did not inhibit |  |  |  |  |  | CC(C)=CCC[C@](C)(O[C@@H]1O[C@H](CO)[C@@H](O)[C@H](O)[C@H]1O)[C@H]1CC[C@]2(C)[C@@H]1[C@H](O)C[C@@H]1[C@@]3(C)CC[C@H](O)C(C)(C)[C@@H]3[C@@H](O[C@@H]3O[C@H](CO)[C@@H](O)[C@H](O)[C@H]3O)C[C@]12C [Rg1, ginsenoside Rg1] |  |  | not detected | 
5.3 nM | > 100 µM | 15.9 µM |  | 164 ± 39.1 ng·h/mL | 5.1 ± 0.74 ng/mL | 20.8 ± 1.68 h | 2.17 ± 1.76 h | 43.5 ± 17.5 h | CC(C)=CCC[C@](C)(O[C@@H]1O[C@H](CO)[C@@H](O)[C@H](O)[C@H]1O)[C@H]1CC[C@]2(C)[C@@H]1[C@H](O)C[C@@H]1[C@@]3(C)CC[C@H](O[C@@H]4O[C@H](CO)[C@@H](O)[C@H](O)[C@H]4O[C@@H]4O[C@H](CO)[C@@H](O)[C@H](O)[C@H]4O)C(C)(C)[C@@H]3CC[C@]12C [Rd, ginsenoside Rd] |  |  |  | 
 |  |  |  |  |  |  |  |  | CC(C)=CCC[C@](C)(O[C@@H]1O[C@H](CO)[C@@H](O)[C@H](O)[C@H]1O)[C@H]1CC[C@]2(C)[C@@H]1[C@H](O)C[C@@H]1[C@@]3(C)CC[C@H](O)C(C)(C)[C@@H]3CC[C@]12C [Compound K, compound K] | > 100 µM | 22.5 µM | not detected | 
 | > 100 µM | > 100 µM | did not inhibit |  |  |  |  |  | CC(C)=CCC[C@](C)(O[C@@H]1O[C@H](CO)[C@@H](O)[C@H](O)[C@H]1O)[C@H]1CC[C@]2(C)[C@@H]1[C@H](O)C[C@@H]1[C@@]3(C)CC[C@H](O)C(C)(C)[C@@H]3[C@@H](O[C@@H]3O[C@H](CO)[C@@H](O)[C@H](O)[C@H]3O[C@@H]3O[C@@H](C)[C@H](O)[C@@H](O)[C@H]3O)C[C@]12C [Re, ginsenoside Re] |  |  | not detected | 
9.1 nM | > 100 µM | 47.6 µM |  | 283 ± 58.9 ng·h/mL | 10 ± 1.04 ng/mL | 18.6 ± 1.43 h | 3.33 ± 1.15 h | 30.2 ± 5.48 h | CC(C)=CCC[C@](C)(O[C@@H]1O[C@H](CO[C@@H]2OC[C@H](O)[C@H](O)[C@H]2O)[C@@H](O)[C@H](O)[C@H]1O)[C@H]1CC[C@]2(C)[C@@H]1[C@H](O)C[C@@H]1[C@@]3(C)CC[C@H](O[C@@H]4O[C@H](CO)[C@@H](O)[C@H](O)[C@H]4O[C@@H]4O[C@H](CO)[C@@H](O)[C@H](O)[C@H]4O)C(C)(C)[C@@H]3CC[C@]12C [Rb2, ginsenoside Rb2] |  |  |  | 
10.6 nM | > 100 µM | 18.3 µM |  | 321 ± 97.2 ng·h/mL | 11.7 ± 2.49 ng/mL | 18.4 ± 1.89 h | 3.33 ± 1.15 h | 24.2 ± 7.51 h | CC(C)=CCC[C@](C)(O[C@@H]1O[C@H](CO[C@@H]2O[C@@H](CO)[C@H](O)[C@H]2O)[C@@H](O)[C@H](O)[C@H]1O)[C@H]1CC[C@]2(C)[C@@H]1[C@H](O)C[C@@H]1[C@@]3(C)CC[C@H](O[C@@H]4O[C@H](CO)[C@@H](O)[C@H](O)[C@H]4O[C@@H]4O[C@H](CO)[C@@H](O)[C@H](O)[C@H]4O)C(C)(C)[C@@H]3CC[C@]12C [Rc, ginsenoside Rc] |  |  |  | 

SMILES | maximum plasma concentration (molar) ([3]; rat plasma) | IC50 [1] | IC50 [2] | IC50 OATP1B1 [2, 8] | AUC ([3]; rat, plasma, po, 1.5 g/kg/day) | Cmax ([3]; rat, plasma, po, 1.5 g/kg/day) | MRT ([3]; rat, plasma, po, 1.5 g/kg/day) | Tmax ([3]; rat, plasma, po, 1.5 g/kg/day) | half-life ([3]; rat, plasma, po, 1.5 g/kg/day) | IC50 [1, 4] | IC50 [2, 5] | detection in rat plasma [3, 6] | further results
CC(C)=CCCC(C)(O)[C@H]1CC[C@]2(C)[C@@H]1[C@H](O)C[C@@H]1[C@@]3(C)CC[C@H](O)C(C)(C)[C@@H]3CC[C@]12C (stereo in doubt) [PPD, protopanaxadiol] | 48.4 nM |  |  |  |  |  |  |  |  | > 100 µM | > 100 µM | detected | AUC ([3]; rat plasma, 0 to 48 h, after RGE 1.5 g/kg/day po for 1 week): 542.01 ± 141.09 ng·h/mL; Cmax [3, 7]: 20.56 ± 9.47 ng/mL; MRT [3, 7]: 21.56 ± 3.31 h; T1/2 [3, 7]: 26.95 ± 18.33 h; Tmax [3, 7]: 16.50 ± 12.48 h
CC(C)=CCC[C@](C)(O)[C@H]1CC[C@]2(C)[C@@H]1[C@H](O)C[C@@H]1[C@@]3(C)CC[C@H](O)C(C)(C)[C@@H]3[C@@H](O[C@@H]3O[C@H](CO)[C@@H](O)[C@H](O)[C@H]3O)C[C@]12C [Rh1, ginsenoside Rh1] |  | > 100 µM | > 100 µM | did not inhibit |  |  |  |  |  |  |  | not detected | 
CC(C)=CCC[C@](C)(O)[C@H]1CC[C@]2(C)[C@@H]1[C@H](O)C[C@@H]1[C@@]3(C)CC[C@H](O[C@@H]4O[C@H](CO)[C@@H](O)[C@H](O)[C@H]4O)C(C)(C)[C@@H]3CC[C@]12C [Rh2, ginsenoside Rh2] |  | > 100 µM | 22.3 µM |  |  |  |  |  |  |  |  | not detected | 
